Source: patent publication US20260001910A1, “PEPTIDES AND USES THEREOF” (PreveCeutical Medical Inc., priority 2021, published 2026)

Key:
Twist mRNA = test: Real time RT-PCR mRNA expression (EMT marker); assay type: cell-based, human
Description: (§1) The real-time reverse transcription polymerase chain reaction (RT-PCR) uses fluorescent reporter molecules to monitor the production of amplification products during each cycle of the PCR reaction. This combines the nucleic acid amplification and detection steps into one homogeneous assay and use of appropriate chemistries and data analysis eliminates the need for Southern blotting or DNA sequencing for amplicon identification. Its simplicity, specificity and sensitivity, together with its potential for high throughput and the ongoing introduction of new chemistries, more reliable instrumentation and improved protocols, has made real-time RT-PCR the benchmark technology for the detection and/or comparison of RNA levels.′
(§2) In order to detect and quantify the expression of specific genes at mRNA level, real-time reverse transcriptase polymerase chain reaction (Real time RT-PCR) was performed. Total RNA of samples was isolated and purified using the PureLink® RNA Mini Kit (Life technologies). The concentration of total RNA was detected by NanoDrop 2000 Spectrophotometer (Thermo Scientific). The total RNA (2000 ng) was reverse transcribed using the High-Capacity cDNA Reverse Transcription Kit (Applied Biosystems™).
(§3) The primers of target genes were TaqMan™ Gene Expression Assay for human PLAU (Hs01547054_m1), MMP-2 (Hs01548727_ml), MMP-9 (Hs00957562_m1), Snail-1 (Hs00195591_m1), Snail-2 (Hs00161904_m1), N-cadherin (Hs00983056_m1) and Twist (Hs01675818_s1). Relative quantification was done by reference to 18S ribosomal RNA (18S rRNA) and analysed using the comparative critical threshold (Ct) method
(§4) The mRNA expression of MMPs was measured using qRT-PCR. This was tested three independent times; the results are shown in Tables 8, 9 and 10 for U251, U87 cells and 081024 cells respectively. Results are reported as percent of the control cells (no treatment). SEQ ID NO.
(§5) Epithelial-mesenchymal transition (EMT) is the process by which epithelial cells acquire a migratory (metastatic) phenotype and so EMT is associated with cancer metastasis, cancer cell stemness, chemoresistance and immune resistance. Therefore, the determination of the mRNA expression of EMT markers is a valuable tool to evaluate invasion potential of cancer cells.
(§6) The ‘Snail’ superfamily is involved in cell differentiation and survival, two processes central in cancer research. Snail-1 has a pivotal role in the regulation of epithelial-mesenchymal transition (EMT) and Snail-1 expression is associated with poor prognosis in metastatic cancer, and tumours with elevated Snail-1 expression are harder to treat. The significance of Snail-1 as a prognostic indicator, its involvement in the regulation of EMT and metastasis, and its roles in both drug and immune resistance point out that Snail-1 is an attractive target for tumour growth inhibition and a target for sensitization to cytotoxic drugs (Kaufhold et al., 2014). Twist is transcriptionally active during cell differentiation and lineage determination. During the establishment of cancer metastases by EMT, Twist acts independently of Snail to suppress E-cadherin and to upregulate N-cadherin (CDH-2) and fibronectin. Snail-2 (Slug) is another member of the SNAIL family of transcriptional activators and serves an important role in suppressing the epithelial phenotype in numerous cancer cells (Iwadate, 2016).

Snail-1 mRNA = test: Real time RT-PCR mRNA expression (EMT marker); assay type: cell-based, human
Description: as §1, §2, §3, §4, §5, §6

Snail-2 mRNA = test: Real time RT-PCR mRNA expression (EMT marker); assay type: cell-based, human
Description: as §1, §2, §3, §4, §5, §6

CDH-2 (N-cadherin) mRNA = test: Real time RT-PCR mRNA expression (EMT marker); assay type: cell-based, human
Description: as §1, §2, §3, §4, §5, §6

[1] = Description: The MTT (3-[4.5-dimethylthiazol-2-yl]-2,5=diphenyl tetrazolium bromide) assay is based on a process undertaken by living cells, involving the conversion of MTT into formazan crystals. This assay is used routinely to measure the in vitro cytotoxic effects of drugs on cell lines or primary patient cells (Van Meerloo et al., 2011).
The glioblastoma multiforme (GBM) cell lines used were U87 and U251 cells and patient derived cells grown as oncospheres (081024 cells). Human adherent GBM cell lines U87 and U251 were cultured in RPMI medium (Life Technologies Melbourne Australia) supplemented with 5% v/v FBS, 100 U/mL penicillin and 100 μg/mL streptomycin. 081024 cells were cultured in NeuroCult™ NS-A Proliferation medium with 0.2% (v/v) hepain, 20 ng/mL EGF and 10 ng/ml FGF.
8×10^3 U87 and 7×10^3 U251 cells per well were seeded in 96 well plates in 200 μL serum-containing RPMI medium and incubated at 37° C. with 5% CO2 for 24 hours. After one wash with serum-free medium, 100 μL serum-free medium with different concentration of peptide SEQ ID NO:1 was added to each well. After 48 hours incubation, 10 μL of 0.5 mg/mL MTT was added and incubated for 2 hours at 37° C. Formazan crystals were dissolved by 200 μL/well dimethyl sulfoxide (DMSO) and shaking for 15 minutes. The UV absorbance was read with an iMark™ microplate absorbance reader at 595 nm (Bio-Rad Laboratories). Background absorbance was subtracted and results expressed as the % viability of control (untreated cells).

[2] = 081024 cells, baseline expression level = 1
[3] = U87 cells, baseline expression level = 1
[4] = U251 cells, relative to untreated control, 18S rRNA reference

Structure (SMILES): CC(C)C[C@@H](NC(=O)[C@@H](Cc1ccccc1)NC(=O)CNC(=O)CNC(=O)[C@H](N)Cc1ccc(O)cc1)C(=O)N[C@H](CCCNC(=N)N)C(=O)N[C@H](CCCNC(=N)N)C(N)=O [SEQ ID NO. 1, tyr-Gly-Gly-phe-leu-arg-arg-NH2]
- Twist mRNA expression (Twist mRNA; [2]): 0.73
- Twist mRNA expression (Twist mRNA; [3]): 0.70
- Twist mRNA expression (Twist mRNA; [4]): 0.87
- Snail-1 mRNA expression (Snail-1 mRNA; [2]): halved the expression of Snail-1 mRNA with statistical significance
- Snail-1 mRNA expression (Snail-1 mRNA; 081024 cells, baseline expression level = 1, listed as SEQ ID NO.1): 0.53
- Snail-1 mRNA expression (Snail-1 mRNA; [3]): 0.65
- Snail-1 mRNA expression (Snail-1 mRNA; [4]): 1.11
- Snail-2 mRNA expression (Snail-2 mRNA; [2]): 0.78
- Snail-2 mRNA expression (Snail-2 mRNA; [3]): 1.05
- Snail-2 mRNA expression (Snail-2 mRNA; [4]): 1.06
- CDH-2 mRNA expression (CDH-2 (N-cadherin) mRNA; [2]): 0.72
- CDH-2 mRNA expression (CDH-2 (N-cadherin) mRNA; [3]): 0.83
- CDH-2 mRNA expression (CDH-2 (N-cadherin) mRNA; [4]): 0.88
- viability at 5 µM [1]: 100%
- viability at 50 µM [1]: 101%
- viability at 100 µM [1]: 94.4%
